Measured values taken from patent publication US20130274235A1, “TREATMENT OF MOTOR NEURON DISEASE” (THE GENERAL HOSPITAL CORPORATION, priority 2010, published 2013).
Structures can show the parent of a compound that is named as a salt.

system: IGF-II mRNA; test: IGF-II expression assay, qPCR detection, in primary spinal cord cultures; assay type: cell-based, mice; conditions: not given
Protocol: Quantitative PCR utilizing SYBR green I (Molecular Probes, Eugene, Oreg.) or specific Taqman probes was used to confirm differential gene expression. RNA extracted from 100-200 LCMed motor neurons were reverse transcribed using Superscript III (Invitrogen). 2 μl of diluted cDNA was amplified (DNA Engine Opticon real-time PCR machine, Bio-Rad), in […] reactions containing 900 nM primer and 250 nM probe in Taqman Universal Master Mix (Applied Biosystems). Reactions were run in duplicate and each gene analyzed in at least three different animals. Reaction parameters were as follows: 50° C. for 2 min, 95° C. for 10 min, and 40 cycles of 95° C. for 15 s and 60° C. for 1 min. Controls lacking template and/or Superscript were included. The absolute copy number for each gene was quantified using a standard curve from human GAPDH plasmid and amplified products were normalized against rat GAPDH expression. Primers and probes (Integrated DNA technologies) were as follows: rat GAPDH: Forward primer: […]
Two libraries of FDA-approved drugs (NINDS and Harvard LDDN) were screened for their ability to up-regulate IGF-II expression. Candidate compounds were screened in an IGF-II expression assay using a qPCR detection methodology in primary spinal cord cultures or using a luciferase reporter assay. In the initial screening, therapeutic candidates were identified as those that increased IGF-II expression by at least 2-fold. […]

Compound | Fold Increase in IGF-II mRNA Expression [fold]
CN1CCC[C@@H]1Cc1c[nH]c2ccc(CCS(=O)(=O)c3ccccc3)cc12 [Eletriptan HBr] | 4.3
CN1CCCC(n2nc(Cc3ccc(Cl)cc3)c3ccccc3c2=O)CC1 (stereo not shown) [Azelastine HCl] | 3.2
Nc1c2c(nc3ccccc13)CCCC2 [Tacrine HCl] | 3.7
CC(C(=O)O)c1ccc2c(c1)[nH]c1ccc(Cl)cc12 (stereo not shown) [Carboprofen] | 2.4
O=C(O)COCCN1CCN(C(c2ccccc2)c2ccc(Cl)cc2)CC1 (stereo not shown) [Cetirizine HCl] | 5.8
Cc1cnc(NC(=O)C2=C(O)c3ccccc3S(=O)(=O)N2C)s1 [Meloxicam sodium] | 4.1
Cc1onc(-c2c(Cl)cccc2Cl)c1C(=O)N[C@@H]1C(=O)N2[C@@H]1SC(C)(C)[C@@H]2C(=O)O [Dicloxacillin sodium] | 3.2
CCOC(=O)[C@@](C)(N)Cc1ccc(O)c(O)c1 [Methyldopate HCl] | 4.3
NNc1nncc2ccccc12 [Hydralazine HCl] | 6.3
CNCC[C@@H](Oc1ccccc1C)c1ccccc1 [Atomoxetine HCl] | 4.8
Cc1ccc(-c2nc3ccc(C)cn3c2CC(=O)N(C)C)cc1 [Zolpidem] | 6.1
CN(C)CCCN1c2ccccc2Sc2ccc(Cl)cc21 [Chlorpromazine] | 3.4
Clc1ccc2c(c1)C(N1CCNCC1)=Nc1ccccc1O2 [Amoxapine] | 4.1 ± 2.3
CS(=O)(=O)c1ccc([C@@H](O)[C@@H](CO)NC(=O)C(Cl)Cl)cc1 [Thiamphenicol] | 3.5
CNCCC(Oc1ccc(C(F)(F)F)cc1)c1ccccc1 (stereo not shown) [Fluoxetine] | 4.3 ± 2.3
COCCCC/C(=N\OCCN)c1ccc(C(F)(F)F)cc1 [Fluvoxamine maleate] | 4.8
CCCc1nc(C(C)(C)O)c(C(=O)OCc2oc(=O)oc2C)n1Cc1ccc(-c2ccccc2-c2nnn[nH]2)cc1 [Olmesartan medoxomil] | 5.2
COc1ccc2[nH]c([S+]([O-])Cc3ncc(C)c(OC)c3C)nc2c1 (stereo not shown) [Omeprazole] | 5.9
CCCN(CCC)CCc1cccc2c1CC(=O)N2 [Ropinirole] | 4.5 ± 3.0

same assay, conditions: NSAID series, FIGS. 3 and 4

Compound | IGF-II inducing activity (in words)
COc1ccc(-c2cc(C(F)F)nn2-c2ccc(S(N)(=O)=O)cc2)cc1F [deracoxib] | strong IGF-II inducing activity
CC(C(=O)O)c1ccc2c(c1)[nH]c1ccc(Cl)cc12 (stereo not shown) [Carboprofen] | strong IGF-II inducing activity
O=C(O)c1cc(-c2ccc(F)cc2F)ccc1O [diflunisal] | strong IGF-II inducing activity
Cc1onc(-c2ccccc2)c1-c1ccc(S(N)(=O)=O)cc1 [valdecoxib] | strong IGF-II inducing activity

same assay, conditions: antihypertensive agents, FIGS. 5 and 6

Compound | induction of IGF-II expression (in words)
CC(C)(C)NC[C@H](O)COc1nsnc1N1CCOCC1 [timolol maleate] | most active
CC(C)NCC(O)COc1ccc(CC(N)=O)cc1 (stereo not shown) [atenolol] | most active
COc1ccccc1OCCNCC(O)COc1cccc2[nH]c3ccccc3c12 (stereo not shown) [carvedilol] | most active
terbutaline hemisulfate | most active
CC(COc1ccccc1)N(CCCl)Cc1ccccc1 (stereo not shown) [phenoxybenzamine HCl] | most active
CCOC(=O)[C@@](C)(N)Cc1ccc(O)c(O)c1 [Methyldopate HCl] | most active
Clc1cccc(Cl)c1N=C1NCCN1 [clonidine HCl] | most active
NNc1nncc2ccccc12 [Hydralazine HCl] | most active
COc1cc2c(cc1OC)C(=O)C(CC1CCN(Cc3ccccc3)CC1)C2 (stereo not shown) [donepezil HCl] | most active
CCCCNc1cc(C(=O)O)cc(S(N)(=O)=O)c1Oc1ccccc1 [bumetanide] | most active
CCCc1nc(C(C)(C)O)c(C(=O)OCc2oc(=O)oc2C)n1Cc1ccc(-c2ccccc2-c2nnn[nH]2)cc1 [Olmesartan medoxomil] | most active
